Experimental data as given in paper PMC5218480 (PLoS ONE, 2017).

System: MV-4-11 cells
Assay: Gene expression microarray analysis (Affymetrix PrimeView) and GSEA
Assay type: cell-based, human
Parameters: RFU PODN (11730768_x_at) / Fold change /veh PODN (11730768_x_at) / RFU LINC00158 (11744669_a_at) / Fold change /veh LINC00158 (11744669_a_at) / RFU DUSP10 (11751237_a_at) / Fold change /veh DUSP10 (11751237_a_at) / RFU ID3 (11757404_x_at) / Fold change /veh ID3 (11757404_x_at) / RFU PLEKHG5 (11737974_s_at) / Fold change /veh PLEKHG5 (11737974_s_at) / RFU LRRC4B (11730491_at) / Fold change /veh LRRC4B (11730491_at) / RFU GIMAP4 (11747438_a_at) / Fold change /veh GIMAP4 (11747438_a_at) / RFU KRT8 (11758183_x_at) / Fold change /veh KRT8 (11758183_x_at) / RFU CNN1 (11734310_a_at) / Fold change /veh CNN1 (11734310_a_at) / RFU VPS37D (11726825_at) / Fold change /veh VPS37D (11726825_at) / RFU C10orf10 (11716522_x_at) / Fold change /veh C10orf10 (11716522_x_at) / RFU KIR2DL2 /// KIR2DL4 /// KIR2DL5A /// KIR2DL5B /// KIR2DS1 /// KIR2DS2 /// KIR2DS3 /// KIR2DS4 /// KIR3DL3 /// KIR3DL3 /// KIR3DS1 (11738374_at) / Fold change /veh KIR2DL2 /// KIR2DL4 /// KIR2DL5A /// KIR2DL5B /// KIR2DS1 /// KIR2DS2 /// KIR2DS3 /// KIR2DS4 /// KIR3DL3 /// KIR3DL3 /// KIR3DS1 (11738374_at) / RFU C1QL1 (11718748_at) / Fold change /veh C1QL1 (11718748_at) / RFU TMPRSS4 (11747572_a_at) / Fold change /veh TMPRSS4 (11747572_a_at) / RFU HAMP (11756126_x_at) / Fold change /veh HAMP (11756126_x_at) / RFU RNFT2 (11725882_a_at) / Fold change /veh RNFT2 (11725882_a_at) / RFU NR4A2 (11747474_a_at) / Fold change /veh NR4A2 (11747474_a_at) / RFU ABCC12 (11746883_a_at) / Fold change /veh ABCC12 (11746883_a_at) / RFU TMEM136 (11760407_x_at) / Fold change /veh TMEM136 (11760407_x_at) / RFU CLDN22 /// WWC2 (11732394_at) / Fold change /veh CLDN22 /// WWC2 (11732394_at) / RFU HLA-DPB1 (11760878_x_at) / Fold change /veh HLA-DPB1 (11760878_x_at) / RFU SPINT1 (11716480_a_at) / Fold change /veh SPINT1 (11716480_a_at) / RFU GAP43 (11754022_s_at) / Fold change /veh GAP43 (11754022_s_at) / RFU A4GNT (11735810_at) / Fold change /veh A4GNT (11735810_at) / RFU PRB3 (11715151_x_at) / Fold change /veh PRB3 (11715151_x_at) / RFU TUBB4B (11761932_at) / Fold change /veh TUBB4B (11761932_at) / RFU CAPN14 (11732068_a_at) / Fold change /veh CAPN14 (11732068_a_at) / RFU TMCC2 (11721928_a_at) / Fold change /veh TMCC2 (11721928_a_at) / RFU IRGQ (11745062_a_at) / Fold change /veh IRGQ (11745062_a_at) / RFU FAM174B (11720279_a_at) / Fold change /veh FAM174B (11720279_a_at) / RFU TMPRSS4 (11748680_a_at) / Fold change /veh TMPRSS4 (11748680_a_at) / RFU FAM212B (11763350_a_at) / Fold change /veh FAM212B (11763350_a_at) / RFU PLEKHG5 (11743358_a_at) / Fold change /veh PLEKHG5 (11743358_a_at) / RFU ZSCAN30 (11745921_a_at) / Fold change /veh ZSCAN30 (11745921_a_at) / RFU CMKLR1 (11741424_a_at) / Fold change /veh CMKLR1 (11741424_a_at) / RFU LOC101060620 /// MAPK8IP1 (11723275_at) / Fold change /veh LOC101060620 /// MAPK8IP1 (11723275_at) / RFU SPTSSB (11747773_x_at) / Fold change /veh SPTSSB (11747773_x_at) / RFU PRSS12 (11739890_at) / Fold change /veh PRSS12 (11739890_at) / RFU BIN1 (11741810_x_at) / Fold change /veh BIN1 (11741810_x_at) / RFU WNT11 (11732464_a_at) / Fold change /veh WNT11 (11732464_a_at) / RFU C10orf10 (11716521_a_at) / Fold change /veh C10orf10 (11716521_a_at) / RFU C5orf56 (11738089_at) / Fold change /veh C5orf56 (11738089_at) / RFU CYB561 (11721691_x_at) / Fold change /veh CYB561 (11721691_x_at) / RFU ANKRD19P (11752326_a_at) / Fold change /veh ANKRD19P (11752326_a_at) / RFU OR2T12 /// OR2T33 /// OR2T8 (11738714_s_at) / Fold change /veh OR2T12 /// OR2T33 /// OR2T8 (11738714_s_at) / RFU VCAN (11748164_a_at) / Fold change /veh VCAN (11748164_a_at) / RFU JSRP1 (11732532_at) / Fold change /veh JSRP1 (11732532_at) / RFU KRTAP10-11 (11738290_x_at) / Fold change /veh KRTAP10-11 (11738290_x_at) / RFU MYO3A (11730013_a_at) / Fold change /veh MYO3A (11730013_a_at) / RFU EBF3 (11725865_a_at) / Fold change /veh EBF3 (11725865_a_at) / RFU CAMK2N1 (11719241_x_at) / Fold change /veh CAMK2N1 (11719241_x_at) / RFU C5orf56 (11738088_a_at) / Fold change /veh C5orf56 (11738088_a_at) / RFU OLFML3 (11715873_a_at) / Fold change /veh OLFML3 (11715873_a_at) / RFU LOC100653217 /// NTM (11731650_a_at) / Fold change /veh LOC100653217 /// NTM (11731650_a_at) / RFU MAPK11 (11762145_a_at) / Fold change /veh MAPK11 (11762145_a_at) / RFU FIZ1 (11724087_x_at) / Fold change /veh FIZ1 (11724087_x_at) / RFU OASL (11726364_x_at) / Fold change /veh OASL (11726364_x_at) / RFU SOX15 (11748057_x_at) / Fold change /veh SOX15 (11748057_x_at) / RFU CD79A (11719716_a_at) / Fold change /veh CD79A (11719716_a_at) / RFU HIST1H1D (11736915_at) / Fold change /veh HIST1H1D (11736915_at) / RFU CASKIN2 (11723855_a_at) / Fold change /veh CASKIN2 (11723855_a_at) / RFU LOC730098 (11760151_x_at) / Fold change /veh LOC730098 (11760151_x_at) / RFU OR4N2 (11742367_at) / Fold change /veh OR4N2 (11742367_at) / RFU PRRT2 (11749266_a_at) / Fold change /veh PRRT2 (11749266_a_at) / RFU SNX32 (11753110_a_at) / Fold change /veh SNX32 (11753110_a_at) / RFU CDHR5 (11726645_a_at) / Fold change /veh CDHR5 (11726645_a_at) / RFU RCAN1 (11760418_a_at) / Fold change /veh RCAN1 (11760418_a_at) / RFU FAM167A (11723789_a_at) / Fold change /veh FAM167A (11723789_a_at) / RFU FAM26E (11764081_at) / Fold change /veh FAM26E (11764081_at) / RFU ISYNA1 (11749810_s_at) / Fold change /veh ISYNA1 (11749810_s_at) / RFU ACY1 (11761880_at) / Fold change /veh ACY1 (11761880_at) / RFU 11764098_at / Fold change /veh 11764098_at / RFU SAMD14 (11745864_x_at) / Fold change /veh SAMD14 (11745864_x_at) / RFU NPB (11741838_a_at) / Fold change /veh NPB (11741838_a_at) / RFU TMPRSS6 (11731388_a_at) / Fold change /veh TMPRSS6 (11731388_a_at) / RFU KRTAP10-2 (11738614_at) / Fold change /veh KRTAP10-2 (11738614_at) / RFU ARHGAP8 /// PRR5-ARHGAP8 (11727945_x_at) / Fold change /veh ARHGAP8 /// PRR5-ARHGAP8 (11727945_x_at) / RFU KRTAP5-7 /// NADSYN1 (11734609_at) / Fold change /veh KRTAP5-7 /// NADSYN1 (11734609_at) / RFU RASL12 (11751679_a_at) / Fold change /veh RASL12 (11751679_a_at) / RFU CDKN2B (11736163_a_at) / Fold change /veh CDKN2B (11736163_a_at) / RFU PRF1 (11729649_at) / Fold change /veh PRF1 (11729649_at) / RFU, ZNF638 /// ZNF638-IT1 / Fold change vs veh, ZNF638 /// ZNF638-IT1 / RFU, PANK3 / Fold change vs veh, PANK3 / RFU, SH3YL1 / Fold change vs veh, SH3YL1 / RFU, ZEB2 / Fold change vs veh, ZEB2 / RFU, NRIP1 / Fold change vs veh, NRIP1 / RFU, PTTG1IP / Fold change vs veh, PTTG1IP / RFU, CAPN2 / Fold change vs veh, CAPN2 / RFU, MED14 / Fold change vs veh, MED14 / RFU, SNORA58 / Fold change vs veh, SNORA58 / RFU, C1orf63 / Fold change vs veh, C1orf63 / RFU, LRRFIP1 / Fold change vs veh, LRRFIP1 / RFU, NDUFAF7 / Fold change vs veh, NDUFAF7 / RFU, SLC12A2 / Fold change vs veh, SLC12A2 / RFU, IBTK / Fold change vs veh, IBTK / RFU, ESF1 / Fold change vs veh, ESF1 / Fold change vs veh, TMEM50B / RFU, TAOK1 / Fold change vs veh, TAOK1 / RFU, ACBD3 / Fold change vs veh, ACBD3 / RFU, TMA16 / Fold change vs veh, TMA16 / RFU, RWDD3 / Fold change vs veh, RWDD3 / RFU, BCAT1 / Fold change vs veh, BCAT1 / RFU, EDEM3 / Fold change vs veh, EDEM3 / RFU, TMEM33 / Fold change vs veh, TMEM33 / RFU, WDR75 / Fold change vs veh, WDR75 / RFU, AHCTF1 / Fold change vs veh, AHCTF1 / RFU, TFRC / Fold change vs veh, TFRC / RFU, ZDHHC17 / Fold change vs veh, ZDHHC17 / RFU, NOM1 / Fold change vs veh, NOM1 / RFU, ARL8B / Fold change vs veh, ARL8B / RFU, ZBTB11 / Fold change vs veh, ZBTB11 / RFU, TAMM41 / Fold change vs veh, TAMM41 / RFU, KIAA1704 /// LOC100996395 / Fold change vs veh, KIAA1704 /// LOC100996395 / RFU, ING1 / Fold change vs veh, ING1 / RFU, TRMT61B / Fold change vs veh, TRMT61B / RFU, FUBP3 / Fold change vs veh, FUBP3 / RFU, TP53 / Fold change vs veh, TP53 / RFU, TNKS2 / Fold change vs veh, TNKS2 / RFU, ZFP14 / Fold change vs veh, ZFP14 / RFU, ACTR2 / Fold change vs veh, ACTR2 / RFU, PPP3R1 / Fold change vs veh, PPP3R1 / RFU, PIK3R1 / Fold change vs veh, PIK3R1 / RFU, HNRNPA1 / Fold change vs veh, HNRNPA1 / RFU, RNF170 / Fold change vs veh, RNF170 / RFU, ZNF28 / Fold change vs veh, ZNF28 / RFU, RNGTT / Fold change vs veh, RNGTT / RFU, OGT / Fold change vs veh, OGT / RFU, BRD1 / Fold change vs veh, BRD1 / RFU, MARS / Fold change vs veh, MARS / RFU, ZNF655 / Fold change vs veh, ZNF655 / RFU, FAHD1 / Fold change vs veh, FAHD1 / RFU, BDP1 / Fold change vs veh, BDP1 / RFU, LRRCC1 / Fold change vs veh, LRRCC1 / RFU, ARID1A / Fold change vs veh, ARID1A / RFU, ZNF146 / Fold change vs veh, ZNF146 / RFU, ZNF330 / Fold change vs veh, ZNF330 / RFU, GPN3 / Fold change vs veh, GPN3 / RFU, C9orf123 / Fold change vs veh, C9orf123 / RFU, N4BP2L2 / Fold change vs veh, N4BP2L2 / RFU, ARFIP1 / Fold change vs veh, ARFIP1 / RFU, FAM179B / Fold change vs veh, FAM179B / RFU, BCL10 / Fold change vs veh, BCL10 / RFU, UHRF1BP1L / Fold change vs veh, UHRF1BP1L / RFU, BET1 / Fold change vs veh, BET1 / RFU, CNOT2 / Fold change vs veh, CNOT2 / RFU, ZNF268 / Fold change vs veh, ZNF268 / Fold change vs veh, ZNF507 / RFU, DGCR2 / Fold change vs veh, DGCR2 / RFU, WDSUB1 / Fold change vs veh, WDSUB1 / Fold change vs veh, HSP90B1 /// MIR3652 / RFU, ADSS / Fold change vs veh, ADSS / RFU, GK / Fold change vs veh, GK / RFU, ZNF148 / Fold change vs veh, ZNF148 / RFU, TAF9 / Fold change vs veh, TAF9 / RFU, SLC1A5 / Fold change vs veh, SLC1A5 / RFU, SLMO2 / Fold change vs veh, SLMO2 / RFU, ABCC4 / Fold change vs veh, ABCC4 / RFU, LOC101060439 /// RAP1B / Fold change vs veh, LOC101060439 /// RAP1B / RFU, RFX7 / Fold change vs veh, RFX7 / RFU, GTPBP10 / Fold change vs veh, GTPBP10 / RFU, CNEP1R1 / Fold change vs veh, CNEP1R1 / RFU, BIVM-ERCC5 /// ERCC5 / Fold change vs veh, BIVM-ERCC5 /// ERCC5 / RFU, ILF3 / Fold change vs veh, ILF3 / RFU 11762660_at / Fold change /veh 11762660_at / RFU VCAN (11757783_s_at) / Fold change /veh VCAN (11757783_s_at) / RFU DDX43 (11728927_at) / Fold change /veh DDX43 (11728927_at) / RFU KRT8 (11758188_x_at) / Fold change /veh KRT8 (11758188_x_at) / RFU NKD1 (11759106_at) / Fold change /veh NKD1 (11759106_at) / RFU SRD5A1 (11742802_a_at) / Fold change /veh SRD5A1 (11742802_a_at) / RFU TPSAB1 /// TPSB2 (11721975_s_at) / Fold change /veh TPSAB1 /// TPSB2 (11721975_s_at) / RFU GSTM3 (11746129_a_at) / Fold change /veh GSTM3 (11746129_a_at) / RFU IL23R (11737362_x_at) / Fold change /veh IL23R (11737362_x_at) / RFU TMEM51 (11727254_a_at) / Fold change /veh TMEM51 (11727254_a_at) / RFU PIWIL2 (11732686_x_at) / Fold change /veh PIWIL2 (11732686_x_at) / RFU ORM1 (11744905_x_at) / Fold change /veh ORM1 (11744905_x_at) / RFU CCDC152 (11743942_at) / Fold change /veh CCDC152 (11743942_at) / RFU ECM1 (11717891_a_at) / Fold change /veh ECM1 (11717891_a_at) / RFU IL23R (11748794_a_at) / Fold change /veh IL23R (11748794_a_at) / RFU TNFAIP8L3 (11732012_x_at) / Fold change /veh TNFAIP8L3 (11732012_x_at) / RFU MBOAT4 (11741988_at) / Fold change /veh MBOAT4 (11741988_at) / RFU 11764193_at / Fold change /veh 11764193_at / RFU TMEM53 (11763286_at) / Fold change /veh TMEM53 (11763286_at) / RFU MAGEB2 (11727129_at) / Fold change /veh MAGEB2 (11727129_at) / RFU TMEM200A (11744735_a_at) / Fold change /veh TMEM200A (11744735_a_at) / RFU CCDC152 (11751479_a_at) / Fold change /veh CCDC152 (11751479_a_at) / RFU FAM211A (11726209_a_at) / Fold change /veh FAM211A (11726209_a_at) / RFU RGS16 (11746705_a_at) / Fold change /veh RGS16 (11746705_a_at) / RFU VCAN (11755009_s_at) / Fold change /veh VCAN (11755009_s_at) / RFU RHOB (11743442_s_at) / Fold change /veh RHOB (11743442_s_at) / RFU RGS16 (11720943_a_at) / Fold change /veh RGS16 (11720943_a_at) / RFU RGS16 (11720944_at) / Fold change /veh RGS16 (11720944_at) / RFU, VPS4B / Fold change vs veh, VPS4B / RFU, CREB1 / Fold change vs veh, CREB1 / RFU, DNAJC13 / Fold change vs veh, DNAJC13 / RFU, GNAQ / Fold change vs veh, GNAQ / RFU, CDK5R1 / Fold change vs veh, CDK5R1 / RFU, ZRANB3 / Fold change vs veh, ZRANB3 / RFU, CUL4A / Fold change vs veh, CUL4A / RFU, CCNY / Fold change vs veh, CCNY / RFU, UFL1 / Fold change vs veh, UFL1 / RFU, COG3 / Fold change vs veh, COG3 / RFU, DIAPH2 / Fold change vs veh, DIAPH2 / RFU, SKA2 / Fold change vs veh, SKA2 / RFU, AFF3 / Fold change vs veh, AFF3 / RFU, LMF1 / Fold change vs veh, LMF1 / RFU, IPO11 / Fold change vs veh, IPO11 / RFU, DFFB / Fold change vs veh, DFFB / RFU, FOXP1 / Fold change vs veh, FOXP1 / RFU, CARD8 / Fold change vs veh, CARD8 / RFU, STRN3 / Fold change vs veh, STRN3 / RFU, ADK / Fold change vs veh, ADK / RFU, RASSF2 / Fold change vs veh, RASSF2 / RFU, WIPF1 / Fold change vs veh, WIPF1 / RFU, LARP1B / Fold change vs veh, LARP1B / RFU, RASA1 / Fold change vs veh, RASA1 / RFU, RB1 / Fold change vs veh, RB1 / RFU, PPFIA1 / Fold change vs veh, PPFIA1 / RFU, MAT2A / Fold change vs veh, MAT2A / RFU, CCT5 / Fold change vs veh, CCT5 / RFU, WDR92 / Fold change vs veh, WDR92 / RFU, CUX1 / Fold change vs veh, CUX1 / RFU, TTC7A / Fold change vs veh, TTC7A / RFU, TMEM135 / Fold change vs veh, TMEM135 / RFU, DEPTOR / Fold change vs veh, DEPTOR / RFU, CPM / Fold change vs veh, CPM / RFU, DNAJB6 / Fold change vs veh, DNAJB6 / RFU, CACNA2D3 / Fold change vs veh, CACNA2D3 / RFU, DTX4 / Fold change vs veh, DTX4 / RFU, TFCP2 / Fold change vs veh, TFCP2 / RFU, GMCL1 /// GMCL1P1 / Fold change vs veh, GMCL1 /// GMCL1P1 / RFU, AEBP2 / Fold change vs veh, AEBP2 / RFU, SNHG1 /// SNORD22 /// SNORD25 /// SNORD26 /// SNORD27 /// SNORD28 /// SNORD29 /// SNORD31 / Fold change vs veh, SNHG1 /// SNORD22 /// SNORD25 /// SNORD26 /// SNORD27 /// SNORD28 /// SNORD29 /// SNORD31 / Fold change (Aza/veh), C12orf56 (ProbeSet 11735607_a_at) / Fold change (ACY-1035/veh), C12orf56 (ProbeSet 11735607_a_at) / Fold change (Aza/veh), FGFR1OP (ProbeSet 11751329_s_at) / Fold change (ACY-1035/veh), FGFR1OP (ProbeSet 11751329_s_at) / Fold change (Aza/veh), VPS36 (ProbeSet 11739960_a_at) / Fold change (ACY-1035/veh), VPS36 (ProbeSet 11739960_a_at) / RFU SYPL1 (11715823_x_at) / Fold change /veh SYPL1 (11715823_x_at) / RFU IGFBP7 (11715501_s_at) / Fold change /veh IGFBP7 (11715501_s_at) / RFU REEP3 (11722064_at) / Fold change /veh REEP3 (11722064_at) / RFU IGLL1 (11728026_x_at) / Fold change /veh IGLL1 (11728026_x_at): dose or concentration left out as unconfirmed
Conditions: MV-4-11 cells, 48 hours

Nc1ncn([C@@H]2O[C@H](CO)[C@@H](O)[C@H]2O)c(=O)n1 [azacitidine]
Fold change /veh IRGQ (11745062_a_at): 1.17
